Test results: patent publication US4175081A, “5-Substituted thiadiazole ureas” (priority 1977, dated 1979)

Assays:
[1] = system: Crabgrass (CG); assay: Pre-emergence herbicide test; format: in vivo, Digitaria sanquinalis; details: Digitaria sanguinalis, pre-emergence, 336 h; 4 lb/acre; two weeks after treatment
In short: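 Crabgrass (Digitaria sanquinalis) was surface seeded in 3' plastic pots of potting soil, covered with screened soil, and watered by sub-irrigation in greenhouse trays. Pots were seeded one day before spraying in a hood with a moving belt and fixed nozzle. Plants stayed in the greenhouse on sub-irrigation, and pre-emergence control was rated visually two weeks after treatment.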

[2] = system: Yellow foxtail grass (YF); assay: Pre-emergence herbicide test; format: in vivo, Setaria glauca; details: Setaria, 336 h, 4 lb/acre, two weeks after treatment
In short: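 Visual rating of injury/control made two weeks after a pre-emergence spray of 8 or 4 lbs active per acre (38 gal/acre) onto pots seeded the previous day. Greenhouse watering by sub-irrigation only.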

[3] = system: Johnson grass (JG); assay: Pre-emergence herbicide test; format: in vivo, Sorgum helepense; details: Sorghum halepense, 336 h, 4 lb/acre, two weeks after treatment
In short: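 Visual injury or control rating two weeks post-treatment, after pre-emergence spray of 8 or 4 lbs active per acre (38 gal/acre) onto pots sown the previous day. Greenhouse watering by sub-irrigation only.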

[4] = system: Barnyard grass (BG); assay: Pre-emergence herbicide test; format: in vivo; details: Echinochloa crus-galli, 336 h, 4 lb/acre, two weeks after treatment
In short: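 Greenhouse pre-emergence spray test: pots seeded one day before treatment received compound at rates of 8 or 4 lb/acre (38 gal/acre). Visual injury/control scores for Echinochloa crus-galli taken at two weeks, with watering by sub-irrigation only.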

[5] = system: Amaranth pigweed (PW); assay: Pre-emergence herbicide test; format: in vivo, Amaranthus retroflexus; details: 336 h, 4 lb/acre, two weeks after treatment
In short: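 Visual injury or control ratings were made at two weeks on pre-emergence pots, sub-irrigated in the greenhouse. Seeds were sown a day before a hood spray delivering 8 lbs/acre (or 4 lbs/acre) of compound in 38 gallons per acre.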

[6] = system: Turnip (TP); assay: Pre-emergence herbicide test; format: in vivo, Brassica sp.; details: Brassica rapa, pre-emergence, 336 h; 4 lb/acre; two weeks after treatment
In short: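 In this pre-emergence greenhouse test, turnip was seeded on the surface of potting soil in 3' plastic pots, lightly covered with screened soil, and watered from below. One day later the pots were sprayed in a belt-fed spray hood. Watering continued only by sub-irrigation, and percent control was visually scored two weeks after treatment.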

[7] = system: Cotton (CT); assay: Pre-emergence herbicide test; format: in vivo, Gossypium hirsutum var. DPL smooth leaf; details: Gossypium hirsutum, 336 h, 4 lb/acre, two weeks after treatment
In short: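 Visual injury/control ratings were taken at two weeks post-spray. Pots seeded a day earlier received compound pre-emergence at 8 lbs/acre, or 4 lbs/acre, in a 38 gallon/acre spray volume, and were then held in the greenhouse, watered only from below.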

[8] = system: Corn (CN); assay: Pre-emergence herbicide test; format: in vivo; details: Zea mays, 336 h, 4 lb/acre, two weeks after treatment
In short: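 Visual injury/control ratings were made 2 weeks post-spray on corn pots seeded (4 seeds, seed-diameter depth) the day before treatment. Application was a belt-hood spray of 38 gal/acre delivering 8 lbs active per acre, with a 4 lbs/acre rate also formulated. Watering was by sub-irrigation throughout.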

[9] = system: Bean (BN); assay: Pre-emergence herbicide test; format: in vivo, Phaseolus vulgaris var. Black Valentine; details: Phaseolus vulgaris, 336 h, 4 lb/acre, two weeks after treatment
In short: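 Visual injury/control ratings were taken two weeks post-spray on sub-irrigated Phaseolus vulgaris var. Black Valentine. Pots were sown a day before treatment. Pre-emergence spray delivered 8 lbs actual compound per acre (or 4 lbs/acre) at 38 gallons per acre.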

[10] = system: Crabgrass (CG); assay: Post-emergence herbicide test; format: in vivo, Digitaria sanquinalis; details: Digitaria sanguinalis, post-emergence, 336 h; 4 lb/acre; two weeks after treatment
In short: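 Crabgrass (Digitaria sanquinalis) was surface seeded individually in 3' plastic pots of potting soil, covered with screened soil, and watered by sub-irrigation in greenhouse trays. Planting was staggered so seedlings reached the target stage together. Post-emergence sprays were applied in a hood with a removable belt and fixed nozzle, and control was visually rated two weeks after treatment.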

[11] = system: Yellow foxtail grass (YF); assay: Post-emergence herbicide test; format: in vivo, Setaria glauca; details: Setaria, 336 h, 4 lb/acre, two weeks after treatment
In short: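 Visual rating of injury/control made 2 weeks post-spray. Seedlings at a uniform growth stage in soil-filled pots received a hood spray of 8 lbs/acre active compound, 38 gallons/acre volume, with a 4 lbs/acre rate also formulated. Watering was by sub-irrigation only.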

[12] = system: Johnson grass (JG); assay: Post-emergence herbicide test; format: in vivo, Sorgum helepense; details: Sorghum halepense, 336 h, 4 lb/acre, two weeks after treatment
In short: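 Visual injury or control scores taken 2 weeks after a post-emergence spray of pot-grown plants. Application was 8 lbs/acre (or 4 lbs/acre) in 38 gal/acre. Plants were held in the greenhouse with sub-irrigation only.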

[13] = system: Barnyard grass (BG); assay: Post-emergence herbicide test; format: in vivo; details: Echinochloa crus-galli, 336 h, 4 lb/acre, two weeks after treatment
In short: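 Greenhouse pot-grown barnyard grass seedlings sprayed post-emergence at 8 lbs active compound per acre (some at 4 lbs/acre) in 38 gallons per acre, then sub-irrigated. Injury or control rated visually two weeks after treatment.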

[14] = system: Amaranth pigweed (PW); assay: Post-emergence herbicide test; format: in vivo, Amaranthus retroflexus; details: 336 h, 4 lb/acre, two weeks after treatment
In short: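 Visual injury or control ratings were made two weeks after spraying, with greenhouse watering by sub-irrigation only. Treatment was post-emergence, when pigweed seedlings had 1 or 2 true leaves, at 8 lbs active compound per acre (4 lbs/acre formulations also made) in a 38 gallons-per-acre spray volume.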

[15] = system: Turnip (TP); assay: Post-emergence herbicide test; format: in vivo, Brassica sp.; details: Brassica rapa, post-emergence, 336 h; 4 lb/acre; two weeks after treatment
In short: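 A greenhouse post-emergence herbicide test on turnip. Seeds were sown on the surface of potting soil in 3' plastic pots, lightly covered with screened soil and watered from below. Planting was timed so seedlings had 1 or 2 true leaves above the cotyledons at spraying, done in a hood with a fixed nozzle. Control or injury was scored by eye after two weeks.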

[16] = system: Cotton (CT); assay: Post-emergence herbicide test; format: in vivo, Gossypium hirsutum var. DPL smooth leaf; details: Gossypium hirsutum, post-emergence, 336 h; 4 lb/acre; two weeks after treatment
In short: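 This greenhouse post-emergence test measured how well spray treatments controlled cotton. Seedlings of Gossypium hirsutum var. DPL smooth leaf, with expanded cotyledons and a first true leaf 1' in length, were sprayed with 50 ml formulations in a belt-fed spray hood. They were then returned to the greenhouse and watered only by sub-irrigation. Injury was scored visually as % control after two weeks.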

[17] = system: Corn (CN); assay: Post-emergence herbicide test; format: in vivo; details: Zea mays, 336 h, 4 lb/acre, two weeks after treatment
In short: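 Greenhouse seedlings grown in potting soil and sprayed post-emergence at 8 lbs compound/acre (formulations also made for 4 lbs/acre) in 38 gallons/acre spray volume. Watering by sub-irrigation only. Injury or control rated visually two weeks after treatment.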

[18] = system: Bean (BN); assay: Post-emergence herbicide test; format: in vivo, Phaseolus vulgaris var. Black Valentine; details: Phaseolus vulgaris, post-emergence, 336 h; 4 lb/acre; two weeks after treatment
In short: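 Bean seedlings (Phaseolus vulgaris var. Black Valentine) were grown in potting soil in 3' pots until the primary leaves expanded. They were then sprayed under a hood with a removable belt and fixed nozzle, using 50 ml formulations. Afterward they were returned to the greenhouse and watered only by sub-irrigation. Percent control was judged visually two weeks after treatment.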

## CN(C)C(=O)N(C)c1nnc(C(C)(C)C)s1 [Example 43]
[1]
  pest or weed control at 4483.4 g/ha: 100%
[2]
  pest or weed control at 4483.4 g/ha: 100%
[3]
  pest or weed control at 4483.4 g/ha: 90%
[4]
  pest or weed control at 4483.4 g/ha: 100%
[5]
  pest or weed control at 4483.4 g/ha: 100%
[6]
  pest or weed control at 4483.4 g/ha: 100%
[7]
  pest or weed control at 4483.4 g/ha: 90%
[8]
  pest or weed control at 4483.4 g/ha: 90%
[9]
  pest or weed control at 4483.4 g/ha: 90%
[10]
  pest or weed control at 4483.4 g/ha: 100%
[11]
  pest or weed control at 4483.4 g/ha: 100%
[12]
  pest or weed control at 4483.4 g/ha: 100%
[13]
  pest or weed control at 4483.4 g/ha: 100%
[14]
  pest or weed control at 4483.4 g/ha: 100%
[15]
  pest or weed control at 4483.4 g/ha: 100%
[16]
  pest or weed control at 4483.4 g/ha: 100%
[17]
  pest or weed control at 4483.4 g/ha: 100%
[18]
  pest or weed control at 4483.4 g/ha: 100%
